{"source": "ChEMBL document CHEMBL3407412", "about": "“Synthesis and bioevaluation of pyrazole-benzimidazolone hybrids as novel human 4-Hydroxyphenylpyruvate dioxygenase inhibitors” (Eur J Med Chem, 2015)", "data": [{"biological_target": "4-hydroxyphenylpyruvate dioxygenase (Homo sapiens, UniProt P32754)", "sequence (P32754 whole entry)": "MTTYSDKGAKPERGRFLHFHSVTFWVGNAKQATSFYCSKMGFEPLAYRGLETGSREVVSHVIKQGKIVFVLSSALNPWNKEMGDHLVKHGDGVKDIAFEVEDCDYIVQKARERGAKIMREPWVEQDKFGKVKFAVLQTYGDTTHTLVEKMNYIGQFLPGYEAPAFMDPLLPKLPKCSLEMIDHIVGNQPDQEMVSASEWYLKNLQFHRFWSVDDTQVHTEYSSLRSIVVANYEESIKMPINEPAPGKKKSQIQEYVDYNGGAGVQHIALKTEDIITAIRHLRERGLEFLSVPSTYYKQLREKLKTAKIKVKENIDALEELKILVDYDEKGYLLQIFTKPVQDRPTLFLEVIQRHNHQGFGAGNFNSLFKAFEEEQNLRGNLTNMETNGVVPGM", "test": "Inhibition of human recombinant His-tagged HPPD expressed in Escherichia coli BL21(DE3) by UV/visible plate reader analysis", "units": {"IC50": "nM"}, "values": [{"molecule": "CCCCn1c(=O)n(C)c2ccc(C(=O)c3cnn(C)c3O)cc21", "IC50": 170}, {"molecule": "Cn1ncc(C(=O)c2ccc3c(c2)n(C(C)(C)C)c(=O)n3C)c1O", "IC50": 100}, {"molecule": "Cc1nn(C)c(O)c1C(=O)c1ccc2c(c1)n(Cc1ccccc1)c(=O)n2C", "IC50": 670}, {"molecule": "CCCn1c(=O)n(CC)c2cc(C(=O)c3cnn(C)c3O)ccc21", "IC50": 39}, {"molecule": "Cc1ccc(-n2c(=O)n(C)c3ccc(C(=O)c4cnn(C)c4O)cc32)cc1", "IC50": 250}, {"molecule": "Cc1nn(C)c(O)c1C(=O)c1ccc2c(c1)n(CC(C)C)c(=O)n2C", "IC50": 2710}]}]}
